{
  "source": "patent US20150353495A1",
  "about": "(PORTOLA PHARMACEUTICALS, INC., priority 2010, published 2015)",
  "assay_type_in_all_cases": "biochemical",
  "key": {"JAK1": {"target": "T1, JAK1 (Homo sapiens, UniProt P23458)", "T1 construct": "5 μl of catalytic domain recombinant Kinase enzyme+Tyr peptide substrate (Invitrogen, CA); purchased Invitrogen", "T1 sequence (P23458 875-1153 limits assumed)": "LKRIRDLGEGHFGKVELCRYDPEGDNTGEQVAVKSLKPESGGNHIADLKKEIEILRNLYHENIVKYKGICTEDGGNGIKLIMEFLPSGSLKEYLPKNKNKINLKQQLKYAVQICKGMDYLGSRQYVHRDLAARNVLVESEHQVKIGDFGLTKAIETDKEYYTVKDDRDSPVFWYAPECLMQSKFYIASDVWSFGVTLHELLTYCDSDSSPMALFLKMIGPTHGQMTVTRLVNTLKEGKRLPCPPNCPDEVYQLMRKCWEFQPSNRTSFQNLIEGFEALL", "assay": "Z'-LYTE kinase assay JAK1", "outline": "(§1)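 In duplicate wells, each test molecule (1% final DMSO) is incubated with recombinant kinase catalytic domain, Tyr6 peptide substrate and ATP for one hour at room temperature; a site-specific protease is then added for another hour before fluorescence reading.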"}, "JAK2": {"target": "T2, JAK2 (Homo sapiens, UniProt O60674)", "T2 construct": "5 μl of catalytic domain recombinant Kinase enzyme+Tyr peptide substrate (Invitrogen, CA); purchased Invitrogen", "T2 sequence (O60674 849-1124 limits assumed)": "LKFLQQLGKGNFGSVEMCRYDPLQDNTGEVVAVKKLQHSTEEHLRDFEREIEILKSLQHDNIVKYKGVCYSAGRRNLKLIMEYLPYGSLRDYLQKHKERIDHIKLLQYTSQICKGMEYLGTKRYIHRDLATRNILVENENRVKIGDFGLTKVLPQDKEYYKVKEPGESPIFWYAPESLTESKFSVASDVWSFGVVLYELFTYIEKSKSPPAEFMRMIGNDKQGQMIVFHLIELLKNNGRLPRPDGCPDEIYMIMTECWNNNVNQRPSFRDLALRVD", "assay": "Z'-LYTE kinase assay JAK2", "outline": "as §1"}, "JAK3": {"target": "T3, JAK3 (Homo sapiens, UniProt P52333)", "T3 construct": "5 μl of catalytic domain recombinant Kinase enzyme+Tyr peptide substrate (Invitrogen, CA); purchased Invitrogen", "T3 sequence (P52333 822-1111 limits assumed)": "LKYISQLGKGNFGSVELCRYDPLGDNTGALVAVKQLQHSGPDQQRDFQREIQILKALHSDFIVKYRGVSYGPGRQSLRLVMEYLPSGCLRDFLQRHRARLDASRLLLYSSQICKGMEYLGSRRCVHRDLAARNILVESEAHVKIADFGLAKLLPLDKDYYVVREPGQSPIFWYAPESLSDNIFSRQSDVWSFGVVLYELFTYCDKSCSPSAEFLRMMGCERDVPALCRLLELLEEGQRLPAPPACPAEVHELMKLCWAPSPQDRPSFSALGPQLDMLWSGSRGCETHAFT", "assay": "Z'-LYTE kinase assay JAK3", "outline": "as §1"}},
  "data": [
    {"smiles": "CC(=O)N(C)c1ccc(Nc2cc(NCc3cccc(F)n3)c(C(N)=O)cn2)cc1", "note": "[Example 485, 4-((6-fluoropyridin-2-yl)methylamino)-6-(4-(N-methylacetamido)phenylamino)nicotinamide]", "values": [
      {"measurement": "IC50", "setting": "JAK1", "value": "> 1000", "unit": "nM"},
      {"measurement": "IC50", "setting": "JAK2", "value": "100 to 1000", "unit": "nM"},
      {"measurement": "IC50", "setting": "JAK3", "value": "10 to 100", "unit": "nM"}
    ]},
    {"smiles": "CC(=O)Nc1ccc(Nc2cc(NCc3cccc(F)n3)c(C(N)=O)cn2)cc1", "note": "[Example 486, 6-(4-acetamidophenylamino)-4-((6-fluoropyridin-2-yl)methylamino)nicotinamide]", "values": [
      {"measurement": "IC50", "setting": "JAK1", "value": "100 to 1000", "unit": "nM"},
      {"measurement": "IC50", "setting": "JAK2", "value": "100 to 1000", "unit": "nM"},
      {"measurement": "IC50", "setting": "JAK3", "value": "10 to 100", "unit": "nM"}
    ]},
    {"smiles": "COC(=O)N(C)c1ccc(Nc2cc(NCc3cccc(F)n3)c(C(N)=O)cn2)cc1", "note": "[Example 487]", "values": [
      {"measurement": "IC50", "setting": "JAK1", "value": "100 to 1000", "unit": "nM"},
      {"measurement": "IC50", "setting": "JAK2", "value": "100 to 1000", "unit": "nM"},
      {"measurement": "IC50", "setting": "JAK3", "value": "10 to 100", "unit": "nM"}
    ]},
    {"smiles": "CCC(=O)N(C)c1ccc(Nc2cc(NCc3cccc(F)n3)c(C(N)=O)cn2)cc1", "note": "[Example 488, 4-((6-fluoropyridin-2-yl)methylamino)-6-(4-(N-methylpropionamido)phenylamino)nicotinamide]", "values": [
      {"measurement": "IC50", "setting": "JAK1", "value": "100 to 1000", "unit": "nM"},
      {"measurement": "IC50", "setting": "JAK2", "value": "100 to 1000", "unit": "nM"},
      {"measurement": "IC50", "setting": "JAK3", "value": "10 to 100", "unit": "nM"}
    ]},
    {"smiles": "CN(C(=O)C1CC1)c1ccc(Nc2cc(NCc3cccc(F)n3)c(C(N)=O)cn2)cc1", "note": "[Example 489, 4-((6-fluoropyridin-2-yl)methylamino)-6-(4-(N-methylcyclopropanecarboxamido)phenylamino)nicotinamide]", "values": [
      {"measurement": "IC50", "setting": "JAK1", "value": "100 to 1000", "unit": "nM"},
      {"measurement": "IC50", "setting": "JAK2", "value": "100 to 1000", "unit": "nM"},
      {"measurement": "IC50", "setting": "JAK3", "value": "10 to 100", "unit": "nM"}
    ]},
    {"smiles": "CCC(=O)N1CC(c2ccc(Nc3cc(NCc4cccc(F)n4)c(C(N)=O)cn3)cc2)C1", "note": "[Example 490, 4-((6-fluoropyridin-2-yl)methylamino)-6-(4-(1-propionylazetidin-3-yl)phenylamino)nicotinamide]", "values": [
      {"measurement": "IC50", "setting": "JAK1", "value": "100 to 1000", "unit": "nM"},
      {"measurement": "IC50", "setting": "JAK2", "value": "100 to 1000", "unit": "nM"},
      {"measurement": "IC50", "setting": "JAK3", "value": "10 to 100", "unit": "nM"}
    ]},
    {"smiles": "CCC(=O)N1CC(c2ccc(Nc3cc(NCc4cccc5ccsc45)c(C(N)=O)cn3)cc2)C1", "note": "[Example 491, 4-(benzo[b]thiophen-7-ylmethylamino)-6-(4-(1-propionylazetidin-3-yl)phenylamino)nicotinamide]", "values": [
      {"measurement": "IC50", "setting": "JAK1", "value": "100 to 1000", "unit": "nM"},
      {"measurement": "IC50", "setting": "JAK2", "value": "10 to 100", "unit": "nM"},
      {"measurement": "IC50", "setting": "JAK3", "value": "1 to 10", "unit": "nM"}
    ]},
    {"smiles": "CCC(=O)N1CC(c2ccc(Nc3cc(NCc4cccc5[nH]ccc45)c(C(N)=O)cn3)cc2)C1", "note": "[Example 492, 4-((1H-indol-4-yl)methylamino)-6-(4-(1-propionylazetidin-3-yl)phenylamino)nicotinamide]", "values": [
      {"measurement": "IC50", "setting": "JAK1", "value": "10 to 100", "unit": "nM"},
      {"measurement": "IC50", "setting": "JAK2", "value": "1 to 10", "unit": "nM"},
      {"measurement": "IC50", "setting": "JAK3", "value": "1 to 10", "unit": "nM"}
    ]},
    {"smiles": "COCC(=O)N1CC(c2ccc(Nc3cc(NCc4cccc(F)n4)c(C(N)=O)cn3)cc2)C1", "note": "[Example 493, 4-((6-fluoropyridin-2-yl)methylamino)-6-(4-(1-(2-methoxyacetyl)azetidin-3-yl)phenylamino)nicotinamide]", "values": [
      {"measurement": "IC50", "setting": "JAK1", "value": "100 to 1000", "unit": "nM"},
      {"measurement": "IC50", "setting": "JAK2", "value": "100 to 1000", "unit": "nM"},
      {"measurement": "IC50", "setting": "JAK3", "value": "10 to 100", "unit": "nM"}
    ]},
    {"smiles": "COCC(=O)N1CC(c2ccc(Nc3cc(NCc4cccc5[nH]ccc45)c(C(N)=O)cn3)cc2)C1", "note": "[Example 494, 4-((1H-indol-4-yl)methylamino)-6-(4-(1-(2-methoxyacetyl)azetidin-3-yl)phenylamino)nicotinamide]", "values": [
      {"measurement": "IC50", "setting": "JAK1", "value": "1 to 10", "unit": "nM"},
      {"measurement": "IC50", "setting": "JAK2", "value": "1 to 10", "unit": "nM"},
      {"measurement": "IC50", "setting": "JAK3", "value": "< 1", "unit": "nM"}
    ]},
    {"smiles": "COCC(=O)N1CC(c2ccc(Nc3cc(NCc4cccc5ccsc45)c(C(N)=O)cn3)cc2)C1", "note": "[Example 495, 4-(benzo[b]thiophen-7-ylmethylamino)-6-(4-(1-(2-methoxyacetyl)azetidin-3-yl)phenylamino)nicotinamide]", "values": [
      {"measurement": "IC50", "setting": "JAK1", "value": "100 to 1000", "unit": "nM"},
      {"measurement": "IC50", "setting": "JAK2", "value": "10 to 100", "unit": "nM"},
      {"measurement": "IC50", "setting": "JAK3", "value": "1 to 10", "unit": "nM"}
    ]}
  ]
}
